# Measurements taken from patent publication US20240279613A1, “METHOD OF PRODUCING ENTEROENDOCRINE CELL, ENTEROENDOCRINE CELL DERIVED FROM PLURIPOTENT STEM CELL, CULTURE MEDIUM OR CULTURE MEDIUM KIT, AND USE THEREOF” (FUJIFILM Corporation, priority 2021, published 2024).
# Key:
# [1] = test system: Human iPS cell-derived intestinal epithelial cells F-hiSIEC; test: Gene expression of EEC markers in F-hiSIEC cells cultured with LY411575 or DAPT added (culture media of Table 2, real-time PCR, Day 9); type: cell-based
# From the text: (§1) Human iPS cell-derived intestinal epithelial cells (including intestinal stem cells, LGR5+ cells) F-hiSIEC™ (FUJIFILM Corporation) were thawed on the day 0 and seeded at 1.0×10^6 cells/well on a cell culture insert coated with Matrigel™ (Corning Incorporated) by using F-hiSIEC™ Seeding Medium (FUJIFILM Corporation), and then from the next day, the culture medium was exchanged every other day with each culture medium (culture medium compositions 7 to 13) in Table 2. Coating, seeding, and culture medium exchange were carried out according to the F-hiSIEC instruction manual to obtain a cell sheet. The total RNA was extracted from the cells on the Day 9. For RNA extraction, the cells were lysed with Qiazol (QIAGEN), 20% of chloroform was added thereto, mixed, and centrifuged at 12,000 g for 10 minutes to obtain a solution, and the supernatant of the solution was recovered. Total RNA was extracted from the supernatant according to the manual using an RNeasy mini kit (QIAGEN). cDNA was synthesized from the total RNA using a High Capacity RNA-to-cDNA kit (Applied Biosystems) according to the manual. The obtained cDNA was subjected to the measurement of the gene expression level by using a ViiA7 real-time PCR system (Applied Biosystems) with a Taqman Gene Expression Assay system and a Taqman Gene Expression Master Mix (Applied Biosystems). The Taqman Assay ID used were as follows: 18s: 03003631_g1. CHGA: Hs00900370_m1. PYY: Hs00373890_g1, and NEUROG3: Hs01875204_s1.
# (§2) Gene expression levels for comparison are indicated in terms of relative value in a case where the expression in the control group cultured in the F-hiSIEC Culture Medium is corrected with the expression level of the internal standard gene 18S according to the […] and then is set to 1.
# [2] = test system: Human iPS cell-derived intestinal epithelial cells F-hiSIEC; test: Gene expression of EEC markers in F-hiSIEC cells cultured in culture media of Table 1 (real-time PCR, Day 9); type: cell-based; conditions: LY411575 (composition 4, 1 μmol/L, no EGF) compared with DAPT (composition 6, 10 μmol/L)
# From the text: as §1, with “compositions 1” for “compositions 7”, “to 6)” for “to 13)”, “Table 1.” for “Table 2.”, “18s: 03003631_g1,” for “18s: 03003631_g1.”, “CHGA: Hs00900370_m1, TPH1: Hs00188220_m1,” for “CHGA: Hs00900370_m1.”, “and REG4: Hs00230746_m1.” for “and NEUROG3: Hs01875204_s1.”
# as §2
# [3] = LY411575 2 μmol/L addition group (culture medium composition 11), among compositions 7 to 13
# [4] = LY411575 addition groups (0.5 to 2.0 μmol/L) compared with DAPT addition groups (5 to 10 μmol/L), no EGF, FIG. 2
smiles,measurement,setting,value
C[C@H](NC(=O)[C@@H](O)c1cc(F)cc(F)c1)C(=O)N[C@@H]1C(=O)N(C)c2ccccc2-c2ccccc21 [LY411575],expression level of CHGA,[1]; [3],highest
same,expression level of NEUROG3,[1]; [3],highest
same,expression level of PYY,[1]; [3],highest
same,expression of CHGA,[1]; [4],high
same,expression of PYY,[1]; [4],remarkably high
same,expression of CHGA,[2],remarkably high
same,expression of PYY,[2],remarkably high
same,expression of Reg4,[2],remarkably high
same,expression of TPH1,[2],remarkably high
